# Test results as given in patent US20240197871A1, “COMBINATION OF A CAR T CELL THERAPY AND AN IMMUNOMODULATORY COMPOUND FOR TREATMENT OF LYMPHOMA” (Juno Therapeutics, Inc., priority 2021, published 2024).
# Legend:
# Assay type in all cases: cell-based
# Aiolos = target: T1, Aiolos (Homo sapiens, UniProt Q96SW2+Q9UKT9); assay: Aiolos degradation in stimulated anti-CD19 CAR T cells (flow cytometry MFI)
# T1 construct: analyzed by flow cytometry to assess intracellular levels of Ikaros and Aiolos in CAR+ T cells; endogenous in cells; host or cells: primary human CD4+ and CD8+ T cells from healthy donors, lentivirally transduced with an anti-CD19 CAR
# T1 sequence (Q9UKT9 whole entry): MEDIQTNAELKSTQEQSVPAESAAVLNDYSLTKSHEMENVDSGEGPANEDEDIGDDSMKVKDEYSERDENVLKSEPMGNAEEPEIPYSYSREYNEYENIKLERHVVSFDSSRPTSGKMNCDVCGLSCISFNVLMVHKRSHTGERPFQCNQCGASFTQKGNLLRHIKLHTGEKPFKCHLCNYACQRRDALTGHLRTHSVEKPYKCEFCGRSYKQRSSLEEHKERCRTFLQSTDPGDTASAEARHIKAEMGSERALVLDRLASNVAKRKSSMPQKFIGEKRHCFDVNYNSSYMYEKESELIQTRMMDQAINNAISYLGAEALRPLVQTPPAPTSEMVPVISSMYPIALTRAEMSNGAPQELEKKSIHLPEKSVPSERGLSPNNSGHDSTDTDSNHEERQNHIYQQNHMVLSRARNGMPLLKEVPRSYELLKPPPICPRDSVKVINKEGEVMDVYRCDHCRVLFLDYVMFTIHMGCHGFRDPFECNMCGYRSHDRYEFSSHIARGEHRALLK
# T1 sequence (Q96SW2 whole entry): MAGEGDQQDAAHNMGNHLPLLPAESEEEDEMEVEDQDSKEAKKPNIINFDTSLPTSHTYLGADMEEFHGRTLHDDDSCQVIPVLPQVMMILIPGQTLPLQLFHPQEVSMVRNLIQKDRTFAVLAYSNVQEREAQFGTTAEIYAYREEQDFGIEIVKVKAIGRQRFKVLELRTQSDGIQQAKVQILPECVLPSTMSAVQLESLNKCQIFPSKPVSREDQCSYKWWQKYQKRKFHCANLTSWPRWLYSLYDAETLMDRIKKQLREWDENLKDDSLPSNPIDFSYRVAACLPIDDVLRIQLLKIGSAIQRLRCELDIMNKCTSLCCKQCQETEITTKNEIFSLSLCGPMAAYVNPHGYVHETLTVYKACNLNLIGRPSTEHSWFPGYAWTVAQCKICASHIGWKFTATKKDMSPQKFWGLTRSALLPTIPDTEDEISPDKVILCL
# T1 sequence (Q16531 whole entry partner): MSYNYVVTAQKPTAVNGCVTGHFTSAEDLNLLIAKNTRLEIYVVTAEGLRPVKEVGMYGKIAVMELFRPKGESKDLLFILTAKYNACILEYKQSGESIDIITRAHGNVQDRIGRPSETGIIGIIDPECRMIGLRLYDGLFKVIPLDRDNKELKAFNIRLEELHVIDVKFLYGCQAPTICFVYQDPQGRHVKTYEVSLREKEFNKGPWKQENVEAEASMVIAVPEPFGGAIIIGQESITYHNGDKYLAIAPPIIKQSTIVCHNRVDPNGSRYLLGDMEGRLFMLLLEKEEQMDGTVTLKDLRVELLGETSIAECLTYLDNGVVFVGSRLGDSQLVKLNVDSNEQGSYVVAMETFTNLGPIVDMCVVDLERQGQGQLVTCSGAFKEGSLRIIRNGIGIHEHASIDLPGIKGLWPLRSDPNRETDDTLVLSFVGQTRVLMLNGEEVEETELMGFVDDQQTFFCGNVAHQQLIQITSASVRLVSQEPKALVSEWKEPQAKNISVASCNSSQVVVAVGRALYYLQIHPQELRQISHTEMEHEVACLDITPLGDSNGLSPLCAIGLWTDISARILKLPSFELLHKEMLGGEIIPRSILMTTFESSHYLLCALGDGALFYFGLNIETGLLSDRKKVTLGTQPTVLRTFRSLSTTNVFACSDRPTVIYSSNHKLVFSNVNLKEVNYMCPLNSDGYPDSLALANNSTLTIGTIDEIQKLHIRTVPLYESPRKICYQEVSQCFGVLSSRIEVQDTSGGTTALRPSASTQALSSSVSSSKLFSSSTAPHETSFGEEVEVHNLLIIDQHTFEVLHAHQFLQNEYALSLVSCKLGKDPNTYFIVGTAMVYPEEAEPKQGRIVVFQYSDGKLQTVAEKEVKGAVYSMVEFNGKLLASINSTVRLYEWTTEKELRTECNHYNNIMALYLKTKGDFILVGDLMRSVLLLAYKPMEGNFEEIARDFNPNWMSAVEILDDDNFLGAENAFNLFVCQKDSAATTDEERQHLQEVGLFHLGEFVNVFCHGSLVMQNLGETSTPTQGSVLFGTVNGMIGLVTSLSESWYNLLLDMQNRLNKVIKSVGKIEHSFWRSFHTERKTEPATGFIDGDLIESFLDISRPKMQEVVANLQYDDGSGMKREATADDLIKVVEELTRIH
# Excerpt: (§1) T cell compositions containing anti-CD19 CAR-expressing T cells were generated from leukapheresis samples from five healthy human adult donors by a process that included immunoaffinity-based selection of T cells by separately selecting CD4+ and CD8+ cells from the samples, resulting in two compositions enriched for CD4+ and CD8+ cells, respectively, per donor. Cells of the enriched CD4+ and CD8+ compositions were separately activated with anti-CD3/anti-CD28 beads and subjected to lentiviral transduction with a vector encoding an anti-CD19 CAR. The anti-CD19 CAR contained an anti-CD19 single-chain variable fragment (scFv) derived from a murine antibody (variable region derived from FMC63), an immunoglobulin-derived spacer, a transmembrane domain derived from CD28, a costimulatory region derived from 4-1BB, and a CD3-zeta intracellular signaling domain. The expression construct in the viral vector further contained sequences encoding a surrogate surface marker for CAR expression, which was separated from the CAR-encoding sequence by a T2A ribosome skip sequence. Transduced populations then were separately incubated in the presence of stimulating reagents for cell expansion. Expanded CD4+ and CD8+ cells were formulated and cryopreserved separately and stored.
# (§2) Prior to use, the cryopreserved CD4+ and CD8+ engineered cell compositions were thawed and combined at approximately a 1:1 CD4:CD8 ratio for each donor. Cells of the combined composition were then stimulated at 37° C. with 5% CO2 for 24 hours with 30 µg/mL of a CAR-specific anti-idiotypic antibody (see, e.g., WO2018/023100).
# (§3) Following incubation, the stimulated cells were stained with antibodies and analyzed by flow cytometry to assess intracellular levels of Ikaros and Aiolos in CAR+ T cells, as measured by median fluorescence intensity (MFI). MFI values for Ikaros and Aiolos were normalized and calculated as a percentage relative to vehicle control.
# Ikaros [1] = target: T2, Ikaros (Homo sapiens, UniProt Q13422+Q96SW2); assay: Ikaros degradation in stimulated anti-CD19 CAR T cells (flow cytometry MFI)
# T2 construct: analyzed by flow cytometry to assess intracellular levels of Ikaros and Aiolos in CAR+ T cells; endogenous in cells; host or cells: primary human CD4+ and CD8+ T cells from healthy donors, lentivirally transduced with an anti-CD19 CAR
# T2 sequence (Q13422 whole entry): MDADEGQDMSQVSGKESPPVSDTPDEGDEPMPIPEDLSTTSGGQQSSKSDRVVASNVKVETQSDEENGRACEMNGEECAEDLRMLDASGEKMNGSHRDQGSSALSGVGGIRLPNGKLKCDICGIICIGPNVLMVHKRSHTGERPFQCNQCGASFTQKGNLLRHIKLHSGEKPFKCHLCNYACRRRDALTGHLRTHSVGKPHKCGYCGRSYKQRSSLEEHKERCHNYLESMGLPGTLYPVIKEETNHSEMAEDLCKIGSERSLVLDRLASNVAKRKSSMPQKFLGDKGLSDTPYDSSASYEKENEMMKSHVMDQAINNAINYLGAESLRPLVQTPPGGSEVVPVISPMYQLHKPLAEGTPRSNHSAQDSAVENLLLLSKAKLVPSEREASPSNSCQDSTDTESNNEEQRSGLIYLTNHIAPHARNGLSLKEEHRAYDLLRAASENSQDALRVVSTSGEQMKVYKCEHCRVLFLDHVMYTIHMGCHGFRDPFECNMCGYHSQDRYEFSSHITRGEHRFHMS
# T2 sequence (Q96SW2 whole entry): as the sequence (Q96SW2 whole entry) above
# T2 sequence (Q16531 whole entry partner): as the sequence (Q16531 whole entry partner) above
# Excerpt: as §1, §2, §3
# [2] = system: Granta-519 lymphoma tumor spheroids; assay: Chronic stimulation with concurrent treatment, re-challenge with tumor spheroids
# Procedure: To simulate conditions of chronic stimulation, anti-CD19 CAR-expressing T cells, produced as described in Example 1, were incubated with plate-bound CAR-specific anti-idiotypic antibody (see, e.g., WO2018/023100) and incubated at 37° C. for a period of six days. […] For instance, CAR T cells that were re-challenged with CD19+ tumor cells following the six-day stimulation had reduced IFNγ and IL-2 cytokine production (FIG. 3A) and reduced cytolytic function (FIG. 3B) compared to freshly thawed CAR T cells not subjected to the six-day stimulation.
# The ability of Compound C to block or reduce this CAR T cell hypofunctionality following chronic stimulation was assessed. To do so, engineered CAR T cells were concurrently treated with Compound C, Compound 2, or a vehicle control during the six-day stimulation. Stimulated CAR T cells were then harvested, washed twice in media, and re-challenged with Granta-519 lymphoma tumor spheroids (that had been transduced with IncuCyte NucLight Red) in the absence of Compound C, after which cytolytic activity was assessed by loss of red fluorescence over time and averaged measurement of tumor spheroid size at various times following co-culture with CAR-T cells. Cytokine production, Ikaros expression, and gene expression of the CAR T Cells also were assessed.
# FIGS. 3D and 3E show the volume of tumor spheroids co-cultured with CAR T cells that were stimulated in the presence of Compound C after chronic stimulation. As shown in FIG. 3D and FIG. 3E, cytolytic activity during re-challenge was improved by treatment with Compound C at a 1 nM concentration during stimulation (**** P<0.0001).
# Ikaros [3] = target: T2, Ikaros; assay: Ikaros levels in anti-CD19 CAR T cells after 24-hour or six-day exposure
# Procedure: Due to the robust impact of Compound C on degradation of Ikaros and Aiolos, in which excessive or sustained treatment may impact CAR T cell function negatively and/or cause neutropenia secondary to neutrophil maturation arrest, an intermittent dosing schedule for treatment with Compound C was evaluated for its ability to effect deep, but transient degradation of Ikaros. To do so, the pharmacokinetics of a weekly (Q7D) 0.3-mg dose of Compound C were modelled. […] The effects of a weekly 0.3-mg dose of Compound C on neutrophil development were also modelled.
# FIGS. 6B and 6C show Ikaros levels in anti-CD19 CAR T cells, generated as described in Example 1, following 24-hour (FIG. 6B) or six-day exposure (FIG. 6C) to Compound C.
# [4] = approximately 10^-1 to 10^4 nM, 24 hours
# [5] = at all compound concentration levels tested
structure (smiles),measurement,setting,value
"O=C1CC[C@H](N2C(=O)c3cccc(NCc4ccc(CN5CC(N6CCOCC6)C5)cc4F)c3C2=O)C(=O)N1 [Compound C, (S)-2-(2,6-dioxopiperidin-3-yl)-4-((2-fluoro-4-((3-morpholinoazetidin-1-yl)methyl)benzyl)amino)isoindoline-1,3-dione]",DC50,"Aiolos; anti-CD19 CAR T cells, 24 hours stimulation with anti-idiotypic antibody, concentration reducing MFI to 50%, average of five donors, read-out: Average EC50 Values (95% Confidence Interval), Aiolos",0.25 nM
same,intracellular Aiolos expression (MFI relative to vehicle control),Aiolos; [4],Concentration-dependent decreases
same,Aiolos expression compared with Compound 2 or Compound 1,Aiolos; [5],lower
same,DC50,"Ikaros [1]; anti-CD19 CAR T cells, 24 hours stimulation with anti-idiotypic antibody, concentration reducing MFI to 50%, average of five donors, read-out: Average EC50 Values (95% Confidence Interval), Ikaros",0.31 nM
same,intracellular Ikaros expression (MFI relative to vehicle control),Ikaros [1]; [4],Concentration-dependent decreases
same,Ikaros expression compared with Compound 2 or Compound 1,Ikaros [1]; [5],lower
same,IFNγ production in supernatant five days after re-challenge,"[2]; 1 nM concurrently during chronic stimulation, P<0.0001",improved IFNγ production
same,cytolytic activity during re-challenge (tumor spheroid volume),"[2]; 1 nM during six-day chronic stimulation (concurrent), P<0.0001",improved
same,IFNγ production in supernatant five days after re-challenge,"[2]; 10 nM during chronic stimulation, P<0.001, lesser extent than 1 nM",increased IFNγ production
same,tumor size at day 9 of co-culture,"[2]; 10 nM during six-day chronic stimulation (concurrent), P<0.05, lesser extent than 1 nM",reduced tumor size
same,Ikaros levels in anti-CD19 CAR T cells,"Ikaros [3]; 24-hour exposure, dose levels as low as 0.01 μM",lead to Ikaros degradation
same,Ikaros levels in anti-CD19 CAR T cells,Ikaros [3]; six-day exposure to 0.001 μM,did not affect Ikaros levels
